≈ marks a conversion by molar mass, not a printed value.
Columns and labels:
Format in all cases: cell-based
[1] = tested on: Bakterien; assay: antibacterial activity of synthetic product compared with natural reutericyclin; conditions: relative to natural reutericyclin
Text: (§1) Das Wirkungsspektrum von Reutericyclin wurde mit Hilfe des Naturstoffes untersucht, der aus Lactobacillus reuteri LTH 2584 wie oben beschrieben isoliert wurde. Die antimikrobielle Aktivität wurde gegenüber einer Vielzahl unterschiedlicher Bakterien getestet. Hierfür wurden Verdünnungstest auf Mikrotiterplatten durchgeführt. Kulturen der verschiedenen Bakterien wurden mit Verdünnungen der erfindungsgemässen Verbindung behandelt und die Konzentration bestimmt, die eine Hemmung des Wachstums der Bakterien im Vergleich mit Kontrollen beobachten ließ.
Dies liegt vermutlich daran, daß 6 im Gegensatz zum natürlichen Reutericyclin als Razemat vorliegt.

[2] = tested on: Lactobacillus sanfranciscensis (ATCC27651); assay: microtitre plate dilution test, minimal inhibitory concentration; conditions: natural product isolated from Lactobacillus reuteri LTH 2584; growth inhibition versus controls; read-out: minimale inhibitorische Konzentration
Text: as §1
(§2) Diese sogenannte minimale inhibitorische Konzentration wurde für das Bakterium Lactobacillus sanfranciscensis (ATCC27651) mit 0,1 +/-0,05 mg/l bestimmt.

[3] = tested on: Enterococcus Faecalis (DSM20409); assay: microtitre plate dilution test, growth inhibition; conditions: natural product, read-out: Konzentration, die eine Hemmung des Wachstums der Bakterien bewirkte
Text: as §1
(§3) Einige humanpathogene Keime, wie beispielsweise Enterococcus Faecalis (DSM20409) erwies sich sogar noch als deutlich empfindlicher gegenüber Reutericyclin. Hier bewirkte eine Konzentration von etwa 0,05 mg/l eine Hemmung des Wachstums der Bakterien. […] Es war also keine Kreuzresistenz festzustellen.

[4] = tested on: Listeria ivanovii (DSM20750); assay: microtitre plate dilution test, growth inhibition; conditions: compared with Lactobacillus sanfranciscensis
Text: as §1

[5] = tested on: Staphylocokus aureus (SG511); assay: microtitre plate dilution test, growth inhibition; conditions: compared with Lactobacillus sanfranciscensis
Text: as §1

[6] = tested on: Escherichia coli; assay: microtitre plate dilution test, growth inhibition; conditions: Gram-negative bacteria; at the tested concentrations
Text: as §1

[7] = tested on: Antibiotika-resistente klinische Isolate (Enterococcus Faecalis); assay: microtitre plate dilution test, antibiotic-resistant clinical isolates; conditions: no cross-resistance found
Text: as §1, §3

[8] = tested on: Hefen; assay: microtitre plate dilution test, growth inhibition; conditions: yeasts; at the tested concentrations
[9] = tested on: L. curvatus (LTH1174); assay: microtitre plate dilution test, growth inhibition; conditions: compared with L. sanfranciscensis (MIC 0,1 +/-0,05 mg/l)
Text: as §1, §2

[10] = tested on: L. sakei (LTH673); assay: microtitre plate dilution test, growth inhibition; conditions: compared with L. sanfranciscensis (MIC 0,1 +/-0,05 mg/l)
Text: as §1, §2

## CCCCCCC/C=C/C(=O)N1C(O)=C(C(C)=O)C(=O)C1CC(C)C (racemic) [compound 6, N-trans-2-Decenoyl-3-acetyl-5-iso-butylpyrrolidin-2,4-dion]
[1]; as a rule
  Menge für gleiche Ergebnisse wie eine Menge des natürlichen Reutericyclins: doppelte Mengen
[1]
  antibakterielle Wirkung: etwas schwächer

## CCCCCCC/C=C/C(=O)N1C(O)=C(C(C)=O)C(=O)[C@H]1CC(C)C [Reutericyclin, 5R-1-(2-trans-Decenoyl)-3-acetyl-5-isobutyl-delta2-pyrrolin4-on]
[2]
  MIC: 0.1 µg/mL (≈ 0.286 µM)
[3]
  MIC: ~0.05 µg/mL (≈ 0.143 µM)
[4]
  Empfindlichkeit gegenüber Reutericyclin: in einer entsprechenden Größenordnung wie Lactobacillus sanfranciscensis
[5]
  Empfindlichkeit gegenüber Reutericyclin: in einer entsprechenden Größenordnung wie Lactobacillus sanfranciscensis
[6]
  Empfindlichkeit gegenüber Reutericyclin: nicht empfindlich
[7]
  Empfindlichkeit gegenüber Reutericyclin: ebenfalls eine Empfindlichkeit
[8]
  Empfindlichkeit gegenüber Reutericyclin: nicht empfindlich
[9]
  Empfindlichkeit gegenüber Reutericyclin: sehr ähnliche Empfindlichkeiten
[10]
  Empfindlichkeit gegenüber Reutericyclin: sehr ähnliche Empfindlichkeiten

From EP1116715A1, “Tetramic acid derivatives useful in medicines and foodstuffs” (priority 2000, dated 2001)
